The results in this text go back to patent US20250049741A1, “COMPOSITION FOR PREVENTING OR TREATING ALZHEIMER'S DISEASE COMPRISING PHOSPHOLIPASE C ACTIVATOR AS AN ACTIVE INGREDIENT” (Korea University Research and Business Foundation, priority 2021, published 2025).

In assay [1] the test system is hippocampal CA3-CA1 excitatory synapses. Briefly: S-eCB mobilization induced spike timing-dependent potentiation (tLTP) protocol, EPSP slope. Type of assay: cell-based, Sprague-Dawley rats. Conditions: m-3M3FBS 30 μM; AβO-treated rat hippocampal slices; similar to level in DMSO-treated slices. As for the experimental part: Soluble AβO was prepared according to a previous study (BMC Biol. 2020; 18(1):7). Specifically, Aβ1-42 (Aβ) and a scrambled form of Aβ as a control peptide were purchased in powder form. Aβ and scrambled Aβ were dissolved for monomerization in 1,1,1,3,3,3-hexafluoro-2-propanol (HFIP, Sigma Aldrich, USA) at a final concentration of 1 mM, and the solution was incubated for 90 minutes. After the HFIP was evaporated, the remaining thin and clear film of Aβ or scrambled Aβ was dissolved in dimethyl sulfoxide (DMSO, Sigma Aldrich, USA) to prepare 5 mM Aβ or scrambled Aβ stocks, which were aliquoted and frozen at −20° C. Aβ or scrambled Aβ stocks were thawed and diluted to 100 μM in artificial cerebrospinal fluid (ACSF). Thereafter, Aβ or scrambled Aβ stocks were incubated for oligomerization for 18 hours. The final AβO or scrambled AβO stock solution was diluted to a final concentration of 200 nM in 31.2 ml of ACSF, and rat hippocampal slices were treated with the stock solution for 20 minutes in a recovery chamber before measurement of brain signals. In control experiments for normal brain conditions using a vehicle, rat hippocampal slices were treated with 0.004% DMSO in ACSF.
The brains of SD rats were isolated following decapitation under isoflurane-induced anesthesia and transferred into ice-cold ACSF containing 126 mM NaCl, […], 1.25 mM NaH2PO4, 2 mM MgSO4, 2 mM CaCl2), 25 mM NaHCO3, and 10 mM glucose (pH 7.2 to 7.4). The ACSF was continuously oxygenated with 95% O2/5% CO2. Horizontal hippocampal slices (350 μm thickness) were obtained using a vibratome (VT1000S, Leica Biosystems, Germany) and immediately incubated at room temperature in a submerged chamber perfused with oxygenated ACSF for at least 1 hour.

The next assay has as its system PLCβ1. Briefly: Western blot of hippocampal PLCβ1 after stereotaxic drug injection in 5XFAD mice. Type of assay: in vivo. The settings on record: m-3M3FBS (50 μM, 0.5 μl per site) injected into dorsal and ventral bilateral hippocampi; three days after injection. The text has this: To test the acute effect of AβO on hippocampal S-eCB mobilization, hippocampal slices from Sprague-Dawley rats (SD, 2 to 3 weeks old, […] Biolink, Co., Ltd., Korea) were used. Male and female rats were used in all in vitro experiments. To test the chronic effect of AβO on hippocampus-dependent memory impairments caused by amyloidosis, the 5XFAD mouse model (6 to 7 months old, #34840-JAX, Jackson Laboratory, USA), which is a mouse model of Alzheimer's disease that mimics AβO depositions, was used. C57BL/6 mice (6 to 7 months old, KOATECH, Korea) were used as wild type (WT) control mice for 5XFAD mice. Male 5XFAD and C57BL/6 mice were used for all in vivo behavioral experiments. The 5XFAD mouse genotypes were identified by polymerase chain reaction (PCR) using DNA extracted from the tails of the mice. All animal-related procedures followed the guidelines of the Institutional Animal Care and Use Committee of Korea University (guidelines for SD rats: KUIACUC-2017-103, guidelines for C57BL/6 and 5XFAD mice: KUIACUC-2019-0068). […] Immunoreactivity was confirmed with enhanced chemiluminescence (Bio-Rad, USA) using a Fluorchem E system (ProteinSimple, USA) and analyzed with ImageJ software. […]

For the molecule `Cc1cc(C)c(S(=O)(=O)Nc2cccc(C(F)(F)F)c2)c(C)c1` [m-3M3FBS], the “tLTP in AβO-treated slices” value in assay [1] is recorded as “completely recovered”. In addition, the “hippocampal PLCβ1 protein levels in 5XFAD mice” value in the assay on PLCβ1 is recorded as “completely recovered”.
